Assay: recombinant UMI read abundance after kanamycin selection (control-corrected) (log10(CPM+1)); higher = more efficient recombination; extreme values may be limits of the assay; sequences stand for … in AGTGCAGAGAAAATCGGCCAGTTTTCTCTGCCTGCAGTCCGCATGCCGTGGGACCCCTTGGGTTCTAACCTGTTGCCTAGATTTATGCAGCGGACTGCCTTTCTCCCAAAGTGATAAACCGG…AGGTTGGTTTCACT; site = the 11-nt donor
Procedure, shortened: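 The measure is log10(CPM+1) for recombinant UMIs. These were PCR-amplified across the donor–target junction and sequenced after Escherichia coli carrying a donor and donor-binding-loop pair library and a target plasmid with T7-inducible IS621 bridge recombinase was plated on IPTG (0.07 mM) plus kanamycin or unselected. CPM were averaged over two replicates and scaled by control-derived factors.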
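Further: IS621 bridge recombinase in Escherichia coli cells against a fixed T5 target plasmid.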

Sequence | recombinant UMI read abundance (log10)
GCCACTTCATGGACCGGTTTTCCCGGTAATCCGTATTTGTT (site GCCACTTCTAA) | 0.855
GCCAGACCATGGACCGGTTTTCCCGGTAATCCGTATTTGGA (site GCCAGACCTTC) | 0.0205
GCCAGTCCATGGACCGGTTTTCCCGGTAATCCGTATTTGAT (site GCCAGTCCTAT) | 0.00932
GCCATACCATGGACCGGTTTTCCCGGTAATCCGTATTTGTG (site GCCATACCTCA) | 0.00697
GCCATGCCATGGACCGGTTTTCCCGGTAATCCGTATTTGTA (site GCCAAGCCTTA) | 0.00915
GCCATGCCATGGACCGGTTTTCCCGGTAATCCGTATTTGTA (site GCCACGCCTTA) | 0.0146
GCCATGCCATGGACCGGTTTTCCCGGTAATCCGTATTTGTA (site GCCAGGCCTTA) | 0.00785
GCCATGCCATGGACCGGTTTTCCCGGTAATCCGTATTTGTA (site GCCATGCCTTA) | 1.26
GCCCCGCCATGGACCGGTTTTCCCGGTAATCCGTATTTGTA (site GCCACGCCTTA) | 0.324
GCCCCGCCATGGACCGGTTTTCCCGGTAATCCGTATTTGTA (site GCCCCGCCTTA) | 0.478
GCCCCGCCATGGACCGGTTTTCCCGGTAATCCGTATTTGTA (site GCCGCGCCTTA) | 0.0226
GCCCCGCCATGGACCGGTTTTCCCGGTAATCCGTATTTGTA (site GCCTCGCCTTA) | 0.00782
GCCCGAGCATGGACCGGTTTTCCCGGTAATCCGTATTTGAA (site GCCCGAGCTTT) | 1.82
GCCCTCGCATGGACCGGTTTTCCCGGTAATCCGTATTTGAC (site GCCCTCGCTGT) | 2.61
GCCGATACATGGACCGGTTTTCCCGGTAATCCGTATTTGTA (site GCCGATACTTA) | 1.91
GCCGGCTCATGGACCGGTTTTCCCGGTAATCCGTATTTGGA (site GCCGGCTCTTC) | 0.632
GCCGTATCATGGACCGGTTTTCCCGGTAATCCGTATTTGAA (site GCCGTATCTTT) | 2.31
GCCTACTCATGGACCGGTTTTCCCGGTAATCCGTATTTGGA (site GCCTACTCTTC) | 1.91
GCCTCCGCATGGACCGGTTTTCCCGGTAATCCGTATTTGAG (site GCCTCCGCTCT) | 0.364

Sequence | recombinant UMI read abundance (log10)
GCCTCCTCATGGACCGGTTTTCCCGGTAATCCGTATTTGCT (site GCCTCCTCTAG) | 2.9
GCCTTAGCATGGACCGGTTTTCCCGGTAATCCGTATTTGCC (site GCCTTAGCTGG) | 0
GCGAAAACATGGACCGGTTTTCCCGGTAATCCGTATTTGCC (site GCGAAAACTAG) | 0
GCGAAAACATGGACCGGTTTTCCCGGTAATCCGTATTTGCC (site GCGAAAACTCG) | 0
GCGAAAACATGGACCGGTTTTCCCGGTAATCCGTATTTGCC (site GCGAAAACTGG) | 0
GCGAAAACATGGACCGGTTTTCCCGGTAATCCGTATTTGCC (site GCGAAAACTTG) | 0
GCGAAAACATGGACCGGTTTTCCCGGTAATCCGTATTTGCT (site ACGAAAACTAG) | 2.25
GCGAAAACATGGACCGGTTTTCCCGGTAATCCGTATTTGCT (site CCGAAAACTAG) | 0
GCGAAAACATGGACCGGTTTTCCCGGTAATCCGTATTTGCT (site GAGAAAACTAG) | 0
GCGAAAACATGGACCGGTTTTCCCGGTAATCCGTATTTGCT (site GCAAAAACTAG) | 0
GCGAAAACATGGACCGGTTTTCCCGGTAATCCGTATTTGCT (site GCCAAAACTAG) | 0
GCGAAAACATGGACCGGTTTTCCCGGTAATCCGTATTTGCT (site GCGAAAACTAA) | 0.207
GCGAAAACATGGACCGGTTTTCCCGGTAATCCGTATTTGCT (site GCGAAAACTAC) | 0
GCGAAAACATGGACCGGTTTTCCCGGTAATCCGTATTTGCT (site GCGAAAACTAG) | 0.854
GCGAAAACATGGACCGGTTTTCCCGGTAATCCGTATTTGCT (site GCGAAAACTAT) | 0.00596
GCGAAAACATGGACCGGTTTTCCCGGTAATCCGTATTTGCT (site GCGAAAACTCG) | 0
GCGAAAACATGGACCGGTTTTCCCGGTAATCCGTATTTGCT (site GCGAAAACTGG) | 0
GCGAAAACATGGACCGGTTTTCCCGGTAATCCGTATTTGCT (site GCGAAAACTTG) | 0
GCGAAAACATGGACCGGTTTTCCCGGTAATCCGTATTTGCT (site GCGAAACCTAG) | 0

Sequence | recombinant UMI read abundance (log10)
GCGAAAACATGGACCGGTTTTCCCGGTAATCCGTATTTGCT (site GCGAAAGCTAG) | 0
GCGAAAACATGGACCGGTTTTCCCGGTAATCCGTATTTGCT (site GCGAAATCTAG) | 0.325
GCGAAAACATGGACCGGTTTTCCCGGTAATCCGTATTTGCT (site GCGAACACTAG) | 0.232
GCGAAAACATGGACCGGTTTTCCCGGTAATCCGTATTTGCT (site GCGAAGACTAG) | 0
GCGAAAACATGGACCGGTTTTCCCGGTAATCCGTATTTGCT (site GCGAATACTAG) | 0
GCGAAAACATGGACCGGTTTTCCCGGTAATCCGTATTTGCT (site GCGACAACTAG) | 0.0316
GCGAAAACATGGACCGGTTTTCCCGGTAATCCGTATTTGCT (site GCGAGAACTAG) | 0
GCGAAAACATGGACCGGTTTTCCCGGTAATCCGTATTTGCT (site GCGATAACTAG) | 0.603
GCGAAAACATGGACCGGTTTTCCCGGTAATCCGTATTTGCT (site GCGCAAACTAG) | 0
GCGAAAACATGGACCGGTTTTCCCGGTAATCCGTATTTGCT (site GCGGAAACTAG) | 1.21
GCGAAAACATGGACCGGTTTTCCCGGTAATCCGTATTTGCT (site GCGTAAACTAG) | 1.73
GCGAAAACATGGACCGGTTTTCCCGGTAATCCGTATTTGCT (site GCTAAAACTAG) | 0
GCGAAAACATGGACCGGTTTTCCCGGTAATCCGTATTTGCT (site GGGAAAACTAG) | 0
GCGAAAACATGGACCGGTTTTCCCGGTAATCCGTATTTGCT (site GTGAAAACTAG) | 0
GCGAAAACATGGACCGGTTTTCCCGGTAATCCGTATTTGCT (site TCGAAAACTAG) | 0
GCGAAGCCATGGACCGGTTTTCCCGGTAATCCGTATTTGCG (site GCGAAGCCTCA) | 0.0182
GCGAAGCCATGGACCGGTTTTCCCGGTAATCCGTATTTGCG (site GCGAAGCCTCC) | 0.0276
GCGAAGCCATGGACCGGTTTTCCCGGTAATCCGTATTTGCG (site GCGAAGCCTCG) | 0.845
GCGAAGCCATGGACCGGTTTTCCCGGTAATCCGTATTTGCG (site GCGAAGCCTCT) | 0.455

Reference: the supplement of paper PMC11208160
